# Values joined by “and” are separate entries in the source; they are usually repeats but may differ in a detail not shown here. Identical values can stand only once.
# Tests used:
# P. salmonis = experiment: Minimum inhibitory concentration of florfenicol on P. salmonis in infected SHK-1 cells; type: cell-based
# Procedure: FIGS. 1 and 2. Cytotoxicity of andrographolide sodium bisulfite (PubChem CID: 133555830, “AP1”) and andrographolide sulphonate (PubChem CID: 72191954, “AP2”) in combination with florfenicol in SHK-1 cells treated and infected with P. salmonis. Cells were treated with AP1 (FIG. 1) and AP2 (FIG. 2) at 4.6 and 9 ng/mL and florfenicol in the range of 0,125; 0,250; 0.5 and […]. LDH analysis was done day 12 post-infection. Cells+Ps, cells infected without treatment; Vehicle+Ps, cells infected and treated with ethanol. “Flo sin AP” means florfenicol without an andrographolide; “Flo+AP” means florfenicol with an andrographolide. The percentage of cytotoxicity was calculated with respect to the control of total lysis of cells and the negative control (cells without treatment and infection) with the control florfenicol without AP. […] ANOVA y Fisher.
# The effect of andrographolide on the antibiotic action of florfenicol, was corroborated by LDH in the supernatant in cells with different treatments showing the synergistic effect of andrographolide (AP) in the range of 0.125; 0.25 and 0.5 μg/mL of the antibiotic.
# coho salmon [1] = experiment: Mortality and cause of death in coho salmon; type: in vivo
# Text: FIG. 4 measures accumulated mortality over 14 days for coho salmon treated with florfenicol alone and combined with andrographolide.
# (§1) Odd-numbered cages received feed medicated with both florfenicol and with andrographolide (0.044 kg andrographolide per ton of feed) for 15 days. Even-numbered cages received feed medicated with only florfenicol. X Axis=day; Y axis (left)=accumulated mortality; Y axis (right)=periodic mortality. For each period, the left bar is florfenicol alone, the right bar is florfenicol and andrographolide. For cumulative mortality, the upper line (at date #5) is florfenicol alone, the lower line is florfenicol and andrographolide.
# In addition, it changes the causes of mortality. Table 2 compares the cause of death for the two groups.
# [2] = Florfenicol residue in muscle of coho salmon after treatment (Table 1); type: in vivo; set-up: florfenicol (residue): unit not given here; details: for florfenicol (residue): florfenicol 20 mg/kg
# Procedure: Florfenicol (“FF”) was administered at a dose of 20 mg/kg at 15 days and at 30 days before harvesting. Andrographolide and seaweed powder were mixed with conventional fish feed at a dose of 1.056 kg seaweed powder and 0.044 kg andrographolide (“NATCONTROL”) per ton of feed. The NORMAL group corresponds to fish fed antibiotic without andrographolide.
# So the farmer can treat with antibiotic closer to harvest, and harvested fish have far less antibiotic residue in their meat. […] This enables one to use a smaller dose of antibiotic to achieve the same effect. The residues of florfenicol at various days post-treatment indicate a more-rapid metabolization of florfenicol in fish muscle receiving andrographolide (<24 or not detected).
# [3] = Plasma concentration of florfenicol over time; type: in vivo, coho salmon
# Text: FIG. 3. Plasma concentration of florfenicol over time: distribution of levels of plasma florfenicol. Y axis=Florfenicol plasma concentration (g/L). X axis=time (t=0, 5 days and 12 days). For each of the three days reported, the left bar is for fish treated with florfenicol alone, the right bar is for fish treated with florfenicol and also fed andrographolide.
# as §1
# coho salmon [4] = experiment: Quality of the fish at harvest time; type: in vivo
# Text: as §1
# Table 3 compares the quality of the fish at harvest time. Premium Quality (“PRM”) fish have an absence of skin lesions and adequate body weight. A total of 332,315 fish were treated with florfenicol+andrographolide (“Impares Nat Control”) and 301,334 fish were treated with florfenicol alone (“Pares Normal”).
# [5] = florfenicol combined with the andrographolide (AP1 or AP2)
# [6] = andrographolide co-fed with florfenicol, coho salmon
# [7] = absence of skin lesions and adequate body weight
molecule,measurement,setting,value
"C=C1CCC2[C@](C)(CO)[C@H](O)CC[C@@]2(C)[C@@H]1CC(C1C(=O)OC[C@H]1O)S(=O)(=O)[O-].[Na+] (stereo partly shown) [AP1, andrographolide sodium bisulfite]",minimum inhibitory concentration of florfenicol,P. salmonis; [5],0.25 µg/mL
C=C1CC[C@@H]2[C@](C)(CO)[C@H](O)CC[C@@]2(C)[C@@H]1C/C=C1/C(=O)OC[C@H]1O [andrographolide],mortality,coho salmon [1]; andrographolide with florfenicol vs florfenicol alone,decreases mortality
same,in vivo metabolism and clearance of florfenicol,[2]; [6],hastens the in vivo metabolism and clearance of florfenicol
same,antibiotic (florfenicol) concentration in plasma,[3]; [6],increases antibiotic concentration in plasma
same,average plasma florfenicol levels,"[3]; fish treated with florfenicol and fed andrographolide vs florfenicol alone, 5 and 12 days",higher average plasma florfenicol levels
andrographolide sulphonate [AP2],minimum inhibitory concentration of florfenicol,P. salmonis; [5],0.25 µg/mL
CS(=O)(=O)c1ccc([C@@H](O)[C@@H](CF)NC(=O)C(Cl)Cl)cc1 [florfenicol],Cause of death: Mechanical damage,coho salmon [1]; Example 3,41.6 % of Total Deaths
same,Cause of death: No apparent cause,coho salmon [1]; Example 3,9.3 % of Total Deaths
same,Cause of death: Runt (very small) fish,coho salmon [1]; Example 3,0 % of Total Deaths
same,Cause of death: SRS (skin lesions),coho salmon [1]; Example 3,25.0 % of Total Deaths
same,Time of death: In holding pen before harvesting,coho salmon [1]; Example 3,10.9 % of Total Deaths
same,florfenicol (residue),"[2]; Cage No. 101, andrographolide diet, Test Report No. 44.217-22",<24
same,florfenicol (residue),"[2]; Cage No. 102, normal diet (no andrographolide), Test Report No. 44.218-22",270 and 363 and 502
same,florfenicol (residue),"[2]; Cage No. 103, andrographolide diet, Test Report No. 44.215-22",<24
same,residues of florfenicol in fish muscle,"[2]; fish receiving andrographolide, various days post-treatment",< 24
same,"FA fish, %",coho salmon [4],4.65%
same,"FA fish, No",coho salmon [4],14012 No
same,"GA1 fish, %",coho salmon [4],17.87%
same,"GA1 fish, No",coho salmon [4],53835 No
same,"GA2 fish, %",coho salmon [4],1.426%
same,"GA2 fish, No",coho salmon [4],4297 No
same,percentage of Premium Quality fish,coho salmon [4],76.1%
same,"PRM (Premium Quality) fish, %",coho salmon [4]; [7],76.06%
same,"PRM (Premium Quality) fish, No",coho salmon [4]; [7],229190 No
same,minimum inhibitory concentration of florfenicol,P. salmonis; without andrographolide,0.5 µg/mL

# From patent US20260345526A1, “Amphenicol Adjuvant Improves Bioavailability and Efficacy” (priority 2023, published 2026)
